Data: ChEMBL document CHEMBL3774317, “Design and synthesis of novel tamoxifen analogues that avoid CYP2D6 metabolism” (Eur J Med Chem, 2016)

Key:
Type in all cases: functional
[1] = Cytotoxicity against human Caki1 cells assessed as cell growth at 50 uM after 48 hrs by SRB assay; details: CAKI-1, 48 h, read-out: Activity
T47D = test: Cytotoxicity against human T47D cells assessed as cell growth at 5 nM after 48 hrs by SRB assay; details: read-out: Activity
[2] = Cytotoxicity against human SF295 cells assessed as cell growth at 5 uM after 48 hrs by SRB assay; details: SF-295, 48 h, read-out: Activity
[3] = Cytotoxicity against human IGROV1 cells assessed as cell growth at 5 nM after 48 hrs by SRB assay; details: IGROV-1, 48 h, read-out: Activity
[4] = Cytotoxicity against human IGROV1 cells assessed as cell growth at 0.5 uM after 48 hrs by SRB assay; details: IGROV-1, 48 h, read-out: Activity
[5] = Cytotoxicity against human UACC62 cells assessed as cell growth at 5 nM after 48 hrs by SRB assay; details: UACC-62, 48 h, read-out: Activity
ACHN = test: Cytotoxicity against human ACHN cells assessed as cell growth at 5 uM after 48 hrs by SRB assay; details: read-out: Activity
[6] = Cytotoxicity against human SF539 cells assessed as cell growth at 0.5 uM after 48 hrs by SRB assay; details: SF-539, 48 h, read-out: Activity
[7] = Cytotoxicity against human NCI-ADR-RES cells assessed as cell growth at 0.5 uM after 48 hrs by SRB assay; details: read-out: Activity
[8] = Cytotoxicity against human UACC257 cells assessed as cell growth at 5 uM after 48 hrs by SRB assay; details: UACC-257, 48 h, read-out: Activity
NCI-H460 [9] = test: Cytotoxicity against human NCI-H460 cells assessed as cell growth at 50 nM after 48 hrs by SRB assay; details: NCI-H460, 48 h, read-out: Activity
[10] = Cytotoxicity against human SNB75 cells assessed as cell growth at 50 uM after 48 hrs by SRB assay; details: SNB-75, 48 h, read-out: Activity
[11] = Cytotoxicity against human NCI-ADR-RES cells assessed as cell growth at 50 nM after 48 hrs by SRB assay; details: read-out: Activity
SK-MEL-28 [12] = test: Cytotoxicity against human SK-MEL-28 cells assessed as cell growth at 5 nM after 48 hrs by SRB assay; details: SK-MEL-28, 48 h, read-out: Activity
[13] = Cytotoxicity against human SF268 cells assessed as cell growth at 50 nM after 48 hrs by SRB assay; details: SF-268, 48 h, read-out: Activity
A549 = test: Cytotoxicity against human A549 cells assessed as cell growth at 5 nM after 48 hrs by SRB assay; details: A549, 48 h, read-out: Activity
[14] = Cytotoxicity against human SKOV3 cells assessed as cell growth at 50 uM after 48 hrs by SRB assay; details: SK-OV-3, 48 h, read-out: Activity
A498 = test: Cytotoxicity against human A498 cells assessed as cell growth at 5 uM after 48 hrs by SRB assay; details: A498, 48 h, read-out: Activity
[15] = Cytotoxicity against human OVCAR3 cells assessed as cell growth at 50 uM after 48 hrs by SRB assay; details: OVCAR-3, 48 h, read-out: Activity
U-251 = test: Cytotoxicity against human U251 cells assessed as cell growth at 0.5 uM after 48 hrs by SRB assay; details: U-251, 48 h, read-out: Activity
[16] = Cytotoxicity against human HCT15 cells assessed as cell growth at 50 nM after 48 hrs by SRB assay; details: HCT-15, 48 h, read-out: Activity
KM12 = test: Cytotoxicity against human KM12 cells assessed as cell growth at 5 nM after 48 hrs by SRB assay; details: KM12, 48 h, read-out: Activity
SK-MEL-28 [17] = test: Cytotoxicity against human SK-MEL-28 cells assessed as cell growth at 0.5 uM after 48 hrs by SRB assay; details: SK-MEL-28, 48 h, read-out: Activity
M14 = test: Cytotoxicity against human M14 cells assessed as cell growth at 5 uM after 48 hrs by SRB assay; details: M14, 48 h, read-out: Activity
EKVX = test: Cytotoxicity against human EKVX cells assessed as cell growth at 10^-4 M after 48 hrs by SRB assay; details: read-out: Activity
SK-MEL-2 = test: Cytotoxicity against human SK-MEL-2 cells assessed as cell growth at 10^-4 M after 48 hrs by SRB assay; details: SK-MEL-2, 48 h, read-out: Activity
[18] = Cytotoxicity against human OVCAR3 cells assessed as cell growth at 10^-5 M after 48 hrs by SRB assay; details: OVCAR-3, 48 h, read-out: Activity
SK-MEL-5 = test: Cytotoxicity against human SK-MEL-5 cells assessed as cell growth at 10^-6 M after 48 hrs by SRB assay; details: SK-MEL-5, 48 h, read-out: Activity
[19] = Cytotoxicity against human OVCAR8 cells assessed as cell growth at 10^-7 M after 48 hrs by SRB assay; details: OVCAR-8, 48 h, read-out: Activity
[20] = Cytotoxicity against human BT549 cells assessed as cell growth at 10^-8 M after 48 hrs by SRB assay; details: BT-549, 48 h, read-out: Activity
[21] = Cytotoxicity against human SKOV3 cells assessed as cell growth at 10^-5 M after 48 hrs by SRB assay; details: SK-OV-3, 48 h, read-out: Activity
[22] = Cytotoxicity against human DU145 cells assessed as cell growth at 10^-7 M after 48 hrs by SRB assay; details: DU-145, 48 h, read-out: Activity
SR = test: Cytotoxicity against human SR cells assessed as cell growth at 10^-7 M after 48 hrs by SRB assay; details: read-out: Activity
[23] = Cytotoxicity against human COLO205 cells assessed as cell growth at 10^-4 M after 48 hrs by SRB assay; details: COLO 205, 48 h, read-out: Activity
[24] = Cytotoxicity against human HOP92 cells assessed as cell growth at 10^-6 M after 48 hrs by SRB assay; details: HOP-92, 48 h, read-out: Activity
NCI-H23 = test: Cytotoxicity against human NCI-H23 cells assessed as cell growth at 10^-4 M after 48 hrs by SRB assay; details: NCI-H23, 48 h, read-out: Activity
NCI-H460 [25] = test: Cytotoxicity against human NCI-H460 cells assessed as cell growth at 10^-6 M after 48 hrs by SRB assay; details: NCI-H460, 48 h, read-out: Activity
[26] = Cytotoxicity against human OVCAR8 cells assessed as cell growth at 10^-8 M after 48 hrs by SRB assay; details: OVCAR-8, 48 h, read-out: Activity
SN12C = test: Cytotoxicity against human SN12C cells assessed as cell growth at 10^-7 M after 48 hrs by SRB assay; details: read-out: Activity
786-0 = test: Cytotoxicity against human 786-0 cells assessed as cell growth at 10^-7 M after 48 hrs by SRB assay; details: 786-0, 48 h, read-out: Activity
MDA-MB-435 = test: Cytotoxicity against human MDA-MB-435 cells assessed as cell growth at 10^-7 M after 48 hrs by SRB assay; details: MDA-MB-435, 48 h, read-out: Activity

In the case of `CCCCCCCCCC(=O)Oc1ccc(/C(=C(/C)c2ccccc2)c2ccc(OCCN3CCCC3)cc2)cc1`, the growth at 50 µM [1] is reported as -89%, the growth at 0.005 µM (T47D) is reported as 69% and the growth at 5 µM [2] is reported as 86%. For the same compound, the growth at 0.005 µM [3] was 108%, the growth at 0.5 µM [4] was 72% and the growth at 0.005 µM [5] was 100%. It also gave a growth at 5 µM (ACHN) of 88%, a growth at 0.5 µM [6] of 72% and a growth at 0.5 µM [7] of 73%. It also gave a growth at 5 µM [8] of 101%, a growth at 0.05 µM (NCI-H460 [9]) of 102% and a growth at 50 µM [10] of -90%. For the same compound, the growth at 0.05 µM [11] was 96%, the growth at 0.005 µM (SK-MEL-28 [12]) was 104% and the growth at 0.05 µM [13] was 97%. It also gave a growth at 0.005 µM (A549) of 101%, a growth at 50 µM [14] of -88% and a growth at 5 µM (A498) of 64%. It also gave a growth at 50 µM [15] of -84%, a growth at 0.5 µM (U-251) of 67% and a growth at 0.05 µM [16] of 90%. The growth at 0.005 µM (KM12) was 101%, the growth at 0.5 µM (SK-MEL-28 [17]) was 19% and the growth at 5 µM (M14) was 87%.
`C/C(=C(/c1ccc(O)cc1)c1ccc(OCCN2CCCC2)cc1)c1ccccc1` gave a growth at 100 µM (EKVX) of -100%, a growth at 100 µM (SK-MEL-2) of -89% and a growth at 10 µM [18] of 35%. The growth at 1 µM (SK-MEL-5) was 96%, the growth at 0.1 µM [19] was 105% and the growth at 0.01 µM [20] was 96%. The growth at 10 µM [21] was 13%, the growth at 0.1 µM [22] was 96% and the growth at 0.1 µM (SR) was 90%. The growth at 100 µM [23] was -82%, the growth at 1 µM [24] was 84% and the growth at 100 µM (NCI-H23) was -83%. It also gave a growth at 1 µM (NCI-H460 [25]) of 102%, a growth at 0.01 µM [26] of 104% and a growth at 0.1 µM (SN12C) of 104%. For the same compound, the growth at 0.1 µM (786-0) was 99% and the growth at 0.1 µM (MDA-MB-435) was 97%.
